Experimental data as given in ChEMBL document CHEMBL3886401, “Disubstituted benzothienyl-pyrrolotriazines and uses thereof” (2015).

What was measured:
[1] = target: Fibroblast growth factor receptor 1 (Homo sapiens, UniProt P11362); experiment: High ATP Kinase Assay: For the assay, 50 nl of each stock solution of the test compound in DMSO was pipetted into a black, low-volume 384-well microtiter plate (Greiner Bio-One, Frickenhausen, Germany) 2 Î¼l of a solution of the above FGFR-1 fusion protein in aqueous assay buffer [8 mM MOPS pH 7.0, 10 mM magnesium acetate, 1.0 mM dithiothreitol, 0.05% (w/v) bovine serum albumin (BSA), 0.07% (v/v) …
Fibroblast growth factor receptor 1, sequence (P11362 whole entry, the tested form may be a part): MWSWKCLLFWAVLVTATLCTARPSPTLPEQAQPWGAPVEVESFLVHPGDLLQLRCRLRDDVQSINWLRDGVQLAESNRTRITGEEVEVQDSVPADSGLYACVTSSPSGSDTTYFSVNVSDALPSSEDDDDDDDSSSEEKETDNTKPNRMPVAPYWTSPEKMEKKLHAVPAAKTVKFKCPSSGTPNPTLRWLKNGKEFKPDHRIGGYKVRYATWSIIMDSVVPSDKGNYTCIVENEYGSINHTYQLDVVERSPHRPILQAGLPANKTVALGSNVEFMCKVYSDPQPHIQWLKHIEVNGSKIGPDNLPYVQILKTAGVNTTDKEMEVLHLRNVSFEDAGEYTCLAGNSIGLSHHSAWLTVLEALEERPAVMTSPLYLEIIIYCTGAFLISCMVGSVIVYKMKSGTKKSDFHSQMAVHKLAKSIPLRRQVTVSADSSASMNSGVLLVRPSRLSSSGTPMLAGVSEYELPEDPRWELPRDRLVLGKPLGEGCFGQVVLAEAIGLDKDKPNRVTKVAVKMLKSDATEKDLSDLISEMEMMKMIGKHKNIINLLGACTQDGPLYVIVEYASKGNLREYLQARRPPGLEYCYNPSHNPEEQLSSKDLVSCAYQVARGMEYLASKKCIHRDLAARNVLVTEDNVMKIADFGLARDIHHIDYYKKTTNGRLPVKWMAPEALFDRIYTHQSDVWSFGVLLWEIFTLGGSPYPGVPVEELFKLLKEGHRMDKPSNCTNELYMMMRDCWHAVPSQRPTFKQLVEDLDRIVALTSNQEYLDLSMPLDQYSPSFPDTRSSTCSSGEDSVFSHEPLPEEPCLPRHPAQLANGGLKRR

[2] = target: Fibroblast growth factor receptor 3 (Homo sapiens, UniProt P22607); experiment: Kinase Assay: For the assay, 50 nl of each stock solution of the test compound in DMSO was pipetted into a black, low-volume 384-well microtiter plate (Greiner Bio-One, Frickenhausen, Germany) 2 ul of a solution of the above FGFR-3 fusion protein in aqueous assay buffer [8 mM MOPS pH 7.0, 10 mM magnesium acetate, 1.0 mM dithiothreitol, 0.05% (w/v) bovine serum albumin (BSA), 0.07% (v/v) Tween-20 …
Fibroblast growth factor receptor 3, sequence (P22607 whole entry, the tested form may be a part): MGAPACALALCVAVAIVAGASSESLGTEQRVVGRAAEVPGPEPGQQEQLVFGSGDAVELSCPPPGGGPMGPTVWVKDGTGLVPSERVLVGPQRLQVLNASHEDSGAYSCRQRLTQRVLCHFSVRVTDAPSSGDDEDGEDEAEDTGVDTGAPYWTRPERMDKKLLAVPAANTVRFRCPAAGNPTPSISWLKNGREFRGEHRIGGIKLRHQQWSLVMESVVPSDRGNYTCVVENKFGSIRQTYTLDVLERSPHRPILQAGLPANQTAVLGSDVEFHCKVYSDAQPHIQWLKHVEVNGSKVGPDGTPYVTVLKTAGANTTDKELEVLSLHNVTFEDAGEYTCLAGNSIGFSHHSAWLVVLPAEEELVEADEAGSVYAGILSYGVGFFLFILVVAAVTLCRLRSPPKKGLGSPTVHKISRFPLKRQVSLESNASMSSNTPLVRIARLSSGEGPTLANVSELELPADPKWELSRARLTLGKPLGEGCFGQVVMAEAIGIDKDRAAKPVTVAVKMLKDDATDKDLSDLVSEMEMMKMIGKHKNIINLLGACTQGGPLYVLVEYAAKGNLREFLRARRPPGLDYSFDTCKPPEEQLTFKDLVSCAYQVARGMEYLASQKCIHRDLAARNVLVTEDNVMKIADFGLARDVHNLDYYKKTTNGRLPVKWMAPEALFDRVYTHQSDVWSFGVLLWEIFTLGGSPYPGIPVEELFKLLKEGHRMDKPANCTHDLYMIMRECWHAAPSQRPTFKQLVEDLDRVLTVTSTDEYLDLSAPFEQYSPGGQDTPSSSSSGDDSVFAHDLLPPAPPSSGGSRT

| IC50 [1] [nM] | IC50 [2] [nM] | Structure (SMILES) |
| --- | --- | --- |
| 39.1 | – | CCOCc1c(-c2cc3cc(C)cc(OC)c3s2)c2c(N)ncnn2c1C#N |
| 3.9 | – | COCc1c(CN2CCNC(=O)C2)c(-c2cc3cc(C)cc(OC)c3s2)c2c(N)ncnn12 |
| 8 | – | CCOCc1c(CN2CCNC(=O)C2)c(-c2cc3cc(C)cc(OC)c3s2)c2c(N)ncnn12 |
| 1.4 | 0.7 | COc1cc(C)cc2cc(-c3c(CNC(C)=O)c(CNC(C)=O)n4ncnc(N)c34)sc12 |
| 55.3 | 58.1 | COCc1c(-c2cc3cc(C)cc(OC)c3s2)c2c(N)ncnn2c1C#N |
